Assay results from ChEMBL document CHEMBL5143618, “Design, synthesis, and antitumor activity evaluation of novel acyl sulfonamide spirodienones” (Bioorg Med Chem, 2022).

What was measured:
HepG2 = assay: Antiproliferative activity against human HepG2 cells assessed as inhibition of cell growth measured after 74 hrs by SRB assay; type: functional, cell-based; details: HepG2, 74 h
MDA-MB-231 = assay: cells; type: functional, cell-based; details: Homo sapiens, MDA-MB-231, 74 h
Description: Antiproliferative activity against human MDA-MB-231 cells assessed as inhibition of cell growth measured after 74 hrs by SRB assay

HeLa = assay: cells; type: functional, cell-based; details: Homo sapiens, 74 h
Description: Antiproliferative activity against human HeLa cells assessed as inhibition of cell growth measured after 74 hrs by SRB assay

A549 = assay: cells; type: functional, cell-based; details: Homo sapiens, A549, 74 h
Description: Antiproliferative activity against human A549 cells assessed as inhibition of cell growth measured after 74 hrs by SRB assay

[1] = molecular target: 72 kDa type IV collagenase (Homo sapiens, UniProt P08253); assay: Inhibition of MMP2 (unknown origin) using Mca-PLGLDpaAR fluorescent substrate incubated for 2 hrs by microplate reader method
Sequence of 72 kDa type IV collagenase (P08253 whole entry): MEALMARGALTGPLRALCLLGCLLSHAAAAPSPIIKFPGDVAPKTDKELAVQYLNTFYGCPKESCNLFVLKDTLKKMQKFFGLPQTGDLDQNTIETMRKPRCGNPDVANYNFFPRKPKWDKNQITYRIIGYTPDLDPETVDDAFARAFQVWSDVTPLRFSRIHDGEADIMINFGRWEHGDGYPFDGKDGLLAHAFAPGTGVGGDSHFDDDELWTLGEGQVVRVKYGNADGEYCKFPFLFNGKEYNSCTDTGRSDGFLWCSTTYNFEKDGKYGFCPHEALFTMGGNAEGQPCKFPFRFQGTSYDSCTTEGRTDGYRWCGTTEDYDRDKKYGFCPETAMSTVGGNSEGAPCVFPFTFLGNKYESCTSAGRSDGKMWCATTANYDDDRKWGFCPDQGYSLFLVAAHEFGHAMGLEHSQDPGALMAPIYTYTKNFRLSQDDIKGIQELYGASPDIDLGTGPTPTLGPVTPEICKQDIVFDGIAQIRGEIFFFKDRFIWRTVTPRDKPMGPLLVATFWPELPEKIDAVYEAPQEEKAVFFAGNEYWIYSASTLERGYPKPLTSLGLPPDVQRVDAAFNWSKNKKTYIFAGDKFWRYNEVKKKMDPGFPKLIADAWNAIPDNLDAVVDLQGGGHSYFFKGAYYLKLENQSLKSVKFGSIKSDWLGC

IC50 (HepG2) | IC50 (MDA-MB-231) | IC50 (HeLa) | IC50 (A549) | IC50 [1] | SMILES
13 nM |  |  |  |  | CC(=O)O[C@H]1C(=O)[C@@]2(C)[C@H]([C@H](OC(=O)c3ccccc3)[C@]3(O)C[C@H](OC(=O)[C@H](O)[C@@H](NC(=O)c4ccccc4)c4ccccc4)C(C)=C1C3(C)C)[C@]1(OC(C)=O)CO[C@@H]1C[C@@H]2O [PACLITAXEL]
> 10000 nM | 20 nM | 3420 nM | > 10000 nM |  | O=C1C=CC2(C=C1)OCC(=O)N2S(=O)(=O)c1cccs1
> 10000 nM | > 10000 nM | 880 nM | 5 nM |  | O=C1C=CC2(C=C1)OCC(=O)N2S(=O)(=O)c1ccc(N2CCCC2=O)cc1
> 10000 nM | > 10000 nM | 140 nM | > 10000 nM |  | O=C1C=CC2(C=C1)OCC(=O)N2S(=O)(=O)c1ccccc1OC(F)(F)F
590 nM | > 10000 nM | 20 nM | > 10000 nM |  | O=C1C=CC2(C=C1)OCC(=O)N2S(=O)(=O)c1ccccc1C(F)(F)F
1620 nM | > 10000 nM | 880 nM | > 10000 nM |  | COc1ccc(S(=O)(=O)N2C(=O)COC23C=CC(=O)C=C3)cc1
240 nM | > 10000 nM | 30 nM | 50 nM |  | O=C1C=CC2(C=C1)OCC(=O)N2S(=O)(=O)c1ccc(Br)s1
 |  |  |  | 0.59 nM | COc1ccc(S(=O)(=O)N(CC(=O)NO)CC(C)C)cc1
> 10000 nM | > 10000 nM | > 10000 nM | > 10000 nM |  | O=C1C=CC2(C=C1)OCC(=O)N2S(=O)(=O)c1ccccc1
> 10000 nM | > 10000 nM | 570 nM | 9610 nM |  | O=C1C=CC2(C=C1)OCC(=O)N2S(=O)(=O)c1cccc(C(F)(F)F)c1
> 10000 nM | > 10000 nM | 7530 nM | > 10000 nM |  | CS(=O)(=O)N1C(=O)COC12C=CC(=O)C=C2
